The numbers were not newly measured in US20070166380A1, “ZOLPIDEM TABLETS” (priority 2005, published 2007), which cites them from elsewhere.

For this data set the following is noted: after ingestion of the tablet.

`Cc1ccc(-c2nc3ccc(C)cn3c2CC(=O)N(C)C)cc1` [zolpidem, N,N,6-trimethyl-2-(4-methylphenyl)-imidazo [1,2-s]pyridine-3-acetamide]: the “time until zolpidem starts acting” value ('or less') was 15 to 30 min. Under “approximately”, the duration of action is 4 to 6 h.
